Data set [1] addresses T1, C-C chemokine receptor type 5 (Homo sapiens, UniProt P51681). Kind of data set: Antagonist activity at human recombinant CCR5 expressed in human HeLa-P4 cells assessed as inhibition of human HeLa-P4 cells binding to HIV1 gp160 expressing CHO cells at 10 uM by cell-cell fusion assay. It is filed as cell-based. Also on record: scale not given: the % may be the effect or the level left.
Target sequence in this assay (P51681 whole entry, looked up, the tested form may be a part): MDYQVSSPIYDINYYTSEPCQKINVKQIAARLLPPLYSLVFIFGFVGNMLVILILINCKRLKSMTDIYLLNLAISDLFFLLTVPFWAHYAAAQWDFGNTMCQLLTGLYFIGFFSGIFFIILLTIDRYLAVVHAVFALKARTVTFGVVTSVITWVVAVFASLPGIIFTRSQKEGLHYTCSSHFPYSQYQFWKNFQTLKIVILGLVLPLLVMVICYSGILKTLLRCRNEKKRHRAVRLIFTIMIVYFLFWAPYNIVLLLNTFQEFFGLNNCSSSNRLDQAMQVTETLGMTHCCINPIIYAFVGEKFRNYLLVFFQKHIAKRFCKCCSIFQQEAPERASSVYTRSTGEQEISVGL

The target in data set [2] is T1, C-C chemokine receptor type 5. Kind of data set: Antagonist activity at human recombinant CCR5 expressed in human HeLa-P4 cells assessed as inhibition of human HeLa-P4 cells binding to HIV1 gp160 expressing CHO cells at 1 uM by cell-cell fusion assay. It is filed as cell-based. Also on record: scale not given: the % may be the effect or the level left.
Target sequence in this assay (P51681 whole entry, looked up, the tested form may be a part): as above
Data set [3] shares this target. Kind of data set: Antagonist activity at human recombinant CCR5 expressed in human HeLa-P4 cells assessed as inhibition of human HeLa-P4 cells binding to HIV1 gp160 expressing CHO cells at 100 nM by cell-cell fusion assay. The format is cell-based. Also on record: scale not given: the % may be the effect or the level left.
Target sequence in this assay (P51681 whole entry, looked up, the tested form may be a part): as above
Data set [4] in a line: Metabolic stability in human liver microsomes assessed as intrinsic clearance at 1 uM after 30 mins. It is filed as ADME, Microsome. On the technique in general: Liver microsomes are vesicles of endoplasmic reticulum, rich in cytochrome P450 enzymes.
Data set [5] can be described thus: Lipophilicity, log D at pH 7.4. To be noted: buffer. The format is physicochemical.
The test system of data set [6] is Human immunodeficiency virus 1. Kind of data set: Antiviral activity against HIV1 Bal infected in human PM1 cells assessed as inhibition of viral replication. It is filed as functional. To be noted: Human immunodeficiency virus 1, Bal.
The target in data set [7] is T1, C-C chemokine receptor type 5. Kind of data set: Displacement of [125]Mip1beta form CCR5 receptor expressed in MIP34.10 cells. The format is cell-based.
Target sequence in this assay (P51681 whole entry, the tested form may be a part): as the sequence (P51681 whole entry, looked up, the tested form may be a part) above
Data set [8] concerns the target Voltage-gated inwardly rectifying potassium channel KCNH2 (Homo sapiens, UniProt Q12809). Kind of data set: Displacement of [3H]dofetilide form human ERG expressed in HEK239 cells. In general terms: Displacement assays read how much labelled ligand stays bound in the presence of the test substance.

Results on 23 compounds are retold here after ChEMBL document CHEMBL1152710, “The design and discovery of novel amide CCR5 antagonists” (Bioorg Med Chem Lett, 2009).

Usually microsomal CLint stands for a measure of how fast metabolising enzymes remove a compound, apart from limits set by blood flow. As a reminder, the logD is lipophilicity at a set pH, counting ionised and neutral species. What is called IC90 is the point of the concentration-response curve where the effect stands at 90%. Usually IC50 stands for the concentration at which inhibition is half-maximal.

Structures are written as SMILES.

Voltage-gated inwardly rectifying potassium channel KCNH2, sequence (Q12809 whole entry): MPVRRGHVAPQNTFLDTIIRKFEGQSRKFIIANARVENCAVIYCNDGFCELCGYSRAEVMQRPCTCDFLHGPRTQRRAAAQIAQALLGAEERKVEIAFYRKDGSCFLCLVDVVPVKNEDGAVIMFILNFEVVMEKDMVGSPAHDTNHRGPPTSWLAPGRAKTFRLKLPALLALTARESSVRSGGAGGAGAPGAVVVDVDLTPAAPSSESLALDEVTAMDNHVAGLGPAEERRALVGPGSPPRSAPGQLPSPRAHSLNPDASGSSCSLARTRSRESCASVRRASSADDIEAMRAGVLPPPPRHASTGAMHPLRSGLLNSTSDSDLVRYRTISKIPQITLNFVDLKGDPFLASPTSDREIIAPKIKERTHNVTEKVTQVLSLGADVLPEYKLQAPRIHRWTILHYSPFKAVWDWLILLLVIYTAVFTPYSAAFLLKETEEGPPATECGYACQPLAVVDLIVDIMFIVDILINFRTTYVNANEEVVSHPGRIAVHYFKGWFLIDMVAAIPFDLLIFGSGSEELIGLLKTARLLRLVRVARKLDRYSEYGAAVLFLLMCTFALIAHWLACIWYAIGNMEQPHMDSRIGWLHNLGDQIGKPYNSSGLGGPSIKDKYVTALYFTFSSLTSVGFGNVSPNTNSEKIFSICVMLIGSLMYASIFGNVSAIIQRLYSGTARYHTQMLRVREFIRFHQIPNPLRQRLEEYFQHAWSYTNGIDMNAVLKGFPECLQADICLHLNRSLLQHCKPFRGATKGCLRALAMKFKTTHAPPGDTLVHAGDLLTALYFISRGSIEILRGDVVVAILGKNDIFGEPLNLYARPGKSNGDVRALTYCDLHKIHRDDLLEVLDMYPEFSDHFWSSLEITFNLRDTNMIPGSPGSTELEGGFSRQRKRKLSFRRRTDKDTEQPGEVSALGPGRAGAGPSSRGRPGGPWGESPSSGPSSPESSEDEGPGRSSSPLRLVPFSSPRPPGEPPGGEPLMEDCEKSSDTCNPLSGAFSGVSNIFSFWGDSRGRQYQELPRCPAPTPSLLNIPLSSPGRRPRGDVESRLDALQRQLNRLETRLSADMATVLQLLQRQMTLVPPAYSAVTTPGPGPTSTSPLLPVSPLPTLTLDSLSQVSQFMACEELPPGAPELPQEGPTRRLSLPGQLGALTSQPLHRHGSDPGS

With `CC(=O)NC(c1ccccc1)C1CCCN(CCNC(=O)c2c(C)cccc2C)C1` (single isomer, unassigned; diastereomer 2), the Activity in data set [1] amounted to 12%.

With `Cc1ccnc(C)c1C(=O)N1CCC(N2CCC(C(Cc3ccccc3)C(=O)NCC3CC3)CC2)CC1` (centres undefined), in data set [1], the Activity turned out to be 20%.

`Cc1ccnc(C)c1C(=O)N1CCN(CCC(c2ccccc2)c2ccccc2)CC1`: in data set [1], the Activity was found to be 0%.

Turning to `CC(=O)NC(c1ccccc1)[C@H]1CCN(C2CCN(C(=O)c3c(C)cccc3C)CC2)C1` (single isomer, unassigned; diastereomer 1), in data set [2], the Activity was 18%.

Consider `Cc1ccnc(C)c1C(=O)N1[C@@H]2CC[C@H]1C[C@H](N1CCN(C(c3ccccc3)c3ccccc3)CC1)C2`, for which, in data set [3], the Activity came out at 6%.

`Cc1ccnc(C)c1C(=O)N1C2CCC1CN(C1CCN(C(c3ccccc3)c3ccccc3)CC1)C2`: in data set [3], the Activity amounted to 12%.

Consider `Cc1cccc(C)c1C(=O)N1CCC(N(C)C2CN(C(CNC(=O)C3CCC3)c3ccccc3)C2)CC1` (centres undefined), for which the Activity in data set [1] was determined as 20%.

For the compound `Cc1ccnc(C)c1C(=O)NCCN1CCN(C(c2ccccc2)c2ccccc2)CC1`, in data set [3], the Activity was found to be 15%.

In the case of `CC(=O)NC1(c2ccccc2)CCN(C2CCN(C(=O)c3c(C)ccnc3C)CC2)CC1`, in data set [1], the Activity turned out to be 20%.

On to `Cc1ccnc(C)c1C(=O)N1CCC(N(C)CCC(c2ccccc2)c2ccccc2)CC1`, for which, in data set [3], the Activity is 13%.

Regarding `Cc1cccc(C)c1C(=O)N1CCC(N2CCC(N(Cc3ccccc3)C(=O)C3CCC3)CC2)CC1`, the microsomal CLint at 1 µM in data set [4] worked out at 205 µL/min/mg. Moreover, in data set [5], the logD is 3.5. Besides, in data set [6], the IC90 was 40 nM.

As for `Cc1cccc(C)c1C(=O)N1CCC(N2CCCC(N(Cc3ccccc3)C(=O)C3CC3)C2)CC1` (racemic), the Activity in data set [1] is 19%.

Take `Cc1cccc(C)c1C(=O)N1CCC(N2CC[C@@H](N(Cc3ccccc3)C(=O)C3CC3)C2)CC1`: the microsomal CLint at 1 µM in data set [4] was determined as 195 µL/min/mg. Also, the IC50 is 8 nM in data set [7] and 9800 nM in data set [8]. Moreover, the log distribution coefficient (logD) in data set [5] came to 2.6. Moreover, the IC90 in data set [6] was determined as 2 nM.

`Cc1cccc(C)c1C(=O)N1CCC(N2CCCC(CC(NC(=O)C3CCC3)c3ccccc3)C2)CC1` (mixture of isomers): the Activity in data set [1] amounted to 20%.

Take `Cc1cccc(C)c1C(=O)N1CCC(N2[C@@H]3CC[C@H]2C[C@H](N(Cc2ccccc2)C(=O)C2CC2)C3)CC1`: in data set [2], the Activity was 10%.

Turning to `Cc1ccnc(C)c1C(=O)N1CCN(C2C[C@H]3CC[C@@H](C2)N3C(c2ccccc2)c2ccccc2)CC1` (mixture of isomers), the Activity in data set [1] worked out at 25%.

Regarding `CC(=O)NC(c1ccccc1)C1CCCN(C2CCN(C(=O)c3c(C)cccc3C)CC2)C1` (single isomer, unassigned; diastereomer 2), in data set [1], the Activity was found to be 0%.

`CC(=O)NC(c1ccccc1)[C@H]1CCN(C2CCN(C(=O)c3c(C)cccc3C)CC2)C1` (single isomer, unassigned; diastereomer 2): the Activity in data set [1] turned out to be 0%.

Turning to `CC(=O)NC(c1ccccc1)C1CCCN(C2CCN(C(=O)c3c(C)cccc3C)CC2)C1` (single isomer, unassigned; diastereomer 1), the Activity in data set [1] is 28%.

Regarding `Cc1ccnc(C)c1C(=O)N1[C@@H]2CC[C@H]1C[C@@H](N1CCN(C(c3ccccc3)c3ccccc3)CC1)C2`, in data set [1], the Activity was determined as 21%.

Consider `CC(=O)NC(CN1CC(N(C)C2CCN(C(=O)c3c(C)cccc3C)CC2)C1)c1ccccc1` (centres undefined), for which, in data set [1], the Activity turned out to be 50%.

For `CC(=O)NC(c1ccccc1)C1CCCN(CCNC(=O)c2c(C)cccc2C)C1` (single isomer, unassigned; diastereomer 1), the Activity in data set [1] was 20%.

In the case of `Cc1ccnc(C)c1C(=O)N1CCC(N2CCC(CNC(=O)C3CC3)(Cc3ccccc3)CC2)CC1`, the Activity in data set [2] came out at 18%.
